Source: ChEMBL document CHEMBL5331123, “Potent Dual Inhibitors of Steroid Sulfatase and 17β-Hydroxysteroid Dehydrogenase Type 1 with a Suitable Pharmacokinetic Profile for In Vivo Proof-of-Principle Studies in an Endometriosis Mouse Model” (J Med Chem, 2023)
Values after ≈ are worked out from the molar mass of the structure shown.

What was measured:
[1] = Metabolic stability in human liver S9 fraction assessed as intrinsic clearance measured upto 60 mins in presence of NADPH by LC-MS/MS analysis; assay type: ADME, subcellular; conditions: read-out: CLH
[2] = AUC(0 to 24 hrs) in C57BL/6 mouse at 50 mg/kg, sc administered as single dose measured after 24 hrs by HPLC-MS/MS analysis; assay type: ADME, organism-based; design: time 24 hrs, dose 50 mg/kg, route sc; conditions: in vivo
[3] = Drug concentration in C57BL/6 mouse at 50 mg/kg, sc administered as single dose measured after 24 hrs by HPLC-MS/MS analysis; assay type: ADME, organism-based; conditions: in vivo, read-out: Drug uptake
[4] = biological target: T1, Steryl-sulfatase (Homo sapiens, UniProt P08842); assay: Irreversible inhibition of human STS expressed in human T47D cells using [3H]E1S as substrate preincubated for 2 hr followed by substrate addition measured after 24 hrs in presence of E1S by HPLC analysis; assay type: cell-based
T1 sequence (P08842 whole entry): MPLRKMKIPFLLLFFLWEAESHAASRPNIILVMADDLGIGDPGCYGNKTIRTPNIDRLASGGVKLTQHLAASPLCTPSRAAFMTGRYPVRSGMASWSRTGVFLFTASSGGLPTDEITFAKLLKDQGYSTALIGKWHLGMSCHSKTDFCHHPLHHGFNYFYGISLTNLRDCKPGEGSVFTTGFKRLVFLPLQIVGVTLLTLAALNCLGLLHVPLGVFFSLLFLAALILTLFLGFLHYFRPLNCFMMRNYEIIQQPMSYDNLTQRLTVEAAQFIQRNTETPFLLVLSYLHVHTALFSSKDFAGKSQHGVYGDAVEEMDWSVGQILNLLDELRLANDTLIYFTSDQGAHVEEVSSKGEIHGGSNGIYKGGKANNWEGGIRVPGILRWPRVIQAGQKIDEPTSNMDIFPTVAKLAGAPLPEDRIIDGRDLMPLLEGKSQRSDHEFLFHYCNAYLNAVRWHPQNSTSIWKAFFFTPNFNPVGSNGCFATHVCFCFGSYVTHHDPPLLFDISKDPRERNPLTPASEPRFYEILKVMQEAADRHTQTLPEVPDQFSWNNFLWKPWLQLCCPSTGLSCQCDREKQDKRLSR

[5] = biological target: T2, 17-beta-hydroxysteroid dehydrogenase type 1 (Homo sapiens, UniProt P14061); assay: Inhibition of human placental cytosolic fraction 17beta-HSD1 using [3H]E1 as substrate measured after 10 mins in presence of NADH by HPLC analysis; assay type: tissue-based, Placenta
T2 sequence (P14061 whole entry): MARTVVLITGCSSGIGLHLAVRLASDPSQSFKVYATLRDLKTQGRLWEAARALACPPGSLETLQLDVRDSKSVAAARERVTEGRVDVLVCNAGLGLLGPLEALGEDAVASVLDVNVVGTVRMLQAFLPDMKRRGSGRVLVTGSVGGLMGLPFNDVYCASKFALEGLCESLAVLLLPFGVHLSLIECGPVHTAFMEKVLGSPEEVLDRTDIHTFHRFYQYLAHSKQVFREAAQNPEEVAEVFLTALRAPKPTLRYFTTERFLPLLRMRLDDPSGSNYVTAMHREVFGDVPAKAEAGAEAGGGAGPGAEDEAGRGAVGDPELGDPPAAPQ

[6] = biological target: T3, 17-beta-hydroxysteroid dehydrogenase type 2 (Homo sapiens, UniProt P37059); assay: Inhibition of human placental microsomal fraction 17beta-HSD2 using [3H]E2 as substrate measured after 20 mins in presence of NAD+ by HPLC analysis; assay type: microsomes, Placenta, Microsome
T3 sequence (P37059 whole entry): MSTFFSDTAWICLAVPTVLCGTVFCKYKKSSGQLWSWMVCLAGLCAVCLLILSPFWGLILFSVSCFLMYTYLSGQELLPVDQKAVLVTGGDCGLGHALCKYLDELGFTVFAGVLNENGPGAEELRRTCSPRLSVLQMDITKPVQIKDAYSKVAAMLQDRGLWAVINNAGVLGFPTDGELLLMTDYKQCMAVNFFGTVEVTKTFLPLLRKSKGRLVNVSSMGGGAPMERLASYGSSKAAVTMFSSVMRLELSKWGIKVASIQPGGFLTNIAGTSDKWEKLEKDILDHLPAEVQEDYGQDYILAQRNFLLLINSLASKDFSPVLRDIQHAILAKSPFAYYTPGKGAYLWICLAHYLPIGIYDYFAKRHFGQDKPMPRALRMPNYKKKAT

[7] = Metabolic stability in mouse liver S9 fraction assessed as half life measured upto 60 mins in presence of NADPH by LC-MS/MS analysis; assay type: ADME, subcellular; conditions: for half-life: liver S9 fraction
[8] = biological target: T2, 17-beta-hydroxysteroid dehydrogenase type 1; assay: Inhibition of human 17beta-HSD1 expressed in human T47D cells using [3H]E1 as substrate incubated for 1 hr followed by substrate addition measured after 40 mins in presence of E1 by HPLC analysis; assay type: cell-based
[9] = Observed Cmax in C57BL/6 mouse at 50 mg/kg, sc administered as single dose measured upto 24 hrs by HPLC-MS/MS analysis; assay type: ADME, organism-based; design: time < 24 hrs, dose 50 mg/kg, route sc; conditions: in vivo
[10] = Metabolic stability in human liver S9 fraction assessed as half life measured upto 60 mins in presence of NADPH by LC-MS/MS analysis; assay type: ADME, subcellular; conditions: for half-life: liver S9 fraction
[11] = biological target: T1, Steryl-sulfatase; assay: Inhibition of human STS expressed in human T47D cells using [3H]E1S as substrate incubated for 1 hr followed by substrate addition measured after 24 hrs in presence of E1S by HPLC analysis; assay type: cell-based
[12] = Half life in C57BL/6 mouse at 50 mg/kg, sc administered as single dose measured after 24 hrs by HPLC-MS/MS analysis; assay type: ADME, organism-based; conditions: in vivo
[13] = system: HepG2; assay: Cytotoxicity against human HepG2 cells assessed as cell growth inhibition by measuring lethal concentration measured after 48 hrs by MTT assay; assay type: functional
[14] = Aqueous solubility of compound in PBS measured after 1 to 24 hrs; assay type: physicochemical; conditions: time 1-24 hrs
[15] = organism: Homo sapiens; assay: Selectivity ratio of IC50 for human placental microsomal fraction 17beta-HSD2 to IC50 for human placental microsomal fraction 17beta-HSD1
[16] = biological target: T4, Aryl hydrocarbon receptor (Homo sapiens, UniProt P35869); assay: Activation of AhR in human HepG2 cells assessed as increase in CYP1A1 activity at 3.16 uM measured after 48 hrs by fluorescence based analysis; assay type: cell-based; conditions: hepg2, 48 h
T4 sequence (P35869 whole entry): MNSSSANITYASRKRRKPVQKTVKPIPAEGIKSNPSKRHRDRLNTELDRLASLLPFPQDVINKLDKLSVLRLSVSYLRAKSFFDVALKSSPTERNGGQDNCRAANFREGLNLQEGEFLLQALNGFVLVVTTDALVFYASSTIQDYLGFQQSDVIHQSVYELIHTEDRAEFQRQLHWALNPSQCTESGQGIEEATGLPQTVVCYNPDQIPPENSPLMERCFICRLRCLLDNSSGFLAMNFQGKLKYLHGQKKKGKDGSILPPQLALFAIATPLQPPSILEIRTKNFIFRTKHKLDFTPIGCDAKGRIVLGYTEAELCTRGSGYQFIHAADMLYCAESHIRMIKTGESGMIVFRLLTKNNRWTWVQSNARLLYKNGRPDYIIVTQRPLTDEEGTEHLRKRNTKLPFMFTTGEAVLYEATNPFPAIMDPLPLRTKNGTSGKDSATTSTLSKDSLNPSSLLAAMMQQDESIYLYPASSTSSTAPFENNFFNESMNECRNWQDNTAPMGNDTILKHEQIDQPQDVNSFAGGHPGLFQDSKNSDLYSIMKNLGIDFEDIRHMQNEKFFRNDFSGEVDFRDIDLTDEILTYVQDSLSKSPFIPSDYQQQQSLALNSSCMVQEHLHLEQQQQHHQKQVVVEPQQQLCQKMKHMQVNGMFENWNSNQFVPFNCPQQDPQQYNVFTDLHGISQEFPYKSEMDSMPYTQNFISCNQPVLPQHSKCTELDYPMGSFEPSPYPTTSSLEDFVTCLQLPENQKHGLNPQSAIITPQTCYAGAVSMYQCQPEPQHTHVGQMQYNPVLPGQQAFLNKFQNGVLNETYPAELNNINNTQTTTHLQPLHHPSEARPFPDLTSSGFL

[17] = Lipophilicity, logD of compound at pH 7.4; assay type: physicochemical; conditions: buffer
[18] = system: HEK293; assay: Cytotoxicity against HEK293 cells assessed as cell growth inhibition by measuring lethal concentration measured after 72 hrs by MTT assay; assay type: functional, Homo sapiens
[19] = biological target: T5, Steryl-sulfatase (Homo sapiens) (UniProt P08842); assay: Inhibition of human STS expressed in human T47D cells at 1 uM using [3H]E1S as substrate incubated for 1 hr followed by substrate addition measured after 24 hrs in presence of E1S by HPLC analysis relative to control; assay type: cell-based; conditions: time 25.0 hrs
T5 sequence (whole entry): T1 sequence (P08842 whole entry)

[20] = organism: Homo sapiens; assay: Selectivity ratio of IC50 for human 17beta-HSD2 to IC50 for human 17beta-HSD1

C[C@]12CC[C@H]3[C@@H](CCC4=CC(=O)CC[C@@]43C)[C@@H]1CC[C@@H]2O [TESTOSTERONE]
microsomal CLint [1]: 74.5 µL/min/mg

Cc1ccc(OS(N)(=O)=O)cc1N(C)C(=O)c1ccc(-c2cc(C)c(O)c(C)c2)o1
AUC(0-t) at 24 h [2]: 1900 ng·h/mL
microsomal CLint [1]: 35.9 µL/min/mg
concentration at 24 h [3]: 49 nM
IC50 [4]: 460 nM
IC50 [5]: 16 nM
IC50 [6]: 4400 nM
half-life [7]: 28.5 min
IC50 [8]: 3.2 nM
Cmax [9]: 517 nM
half-life [10]: 19.3 min
IC50 [11]: 450 nM
half-life [12]: 129 min
LC20 [13]: 28000 nM
solubility [14]: 20 µM (≈ 8.61 µg/mL)
Ratio IC50 [15]: 275
Activity [16]: Not Active
logD [17]: 2.68
LC20 [18]: <=38 uM

Cc1cc(OS(N)(=O)=O)c(Cl)cc1N(C)C(=O)c1ccc(-c2cc(C)c(O)c(C)c2)o1
AUC(0-t) at 24 h [2]: 1900 ng·h/mL
microsomal CLint [1]: 19.4 µL/min/mg
concentration at 24 h [3]: 62 nM
IC50 [4]: 79 nM
IC50 [5]: 68 nM
IC50 [6]: 7500 nM
half-life [7]: 22.5 min
IC50 [8]: 53 nM
Cmax [9]: 400 nM
half-life [10]: 35.6 min
IC50 [11]: 76 nM
half-life [12]: 169 min
LC20 [13]: 31000 nM
solubility [14]: 20 µM (≈ 9.3 µg/mL)
Ratio IC50 [15]: 110
logD [17]: 2.75
LC20 [18]: <=27 uM

Cc1cc(-c2ccc(C(=O)N(C)c3ccc(OS(N)(=O)=O)c(Cl)c3)o2)cc(C)c1O
IC50 [5]: 400 nM
IC50 [6]: 2400 nM
IC50 [8]: 88 nM
IC50 [11]: 38 nM
Ratio IC50 [15]: 6

Cc1cc(-c2ccc(C(=O)N(C)c3cccc(OS(N)(=O)=O)c3C)o2)cc(C)c1O
inhibition [19]: < 10%
IC50 [8]: 58 nM

NS(=O)(=O)Oc1ccc(-c2ccc(C(=O)c3c(F)ccc(O)c3F)s2)cc1Cl
half-life [7]: < 5 min
half-life [10]: < 5 min
IC50 [11]: 15 nM
Ratio IC50 [20]: 36
Ratio IC50 [15]: 33

Cc1cc(-c2ccc(C(=O)N(C)c3c(C)cccc3OS(N)(=O)=O)o2)cc(C)c1O
inhibition [19]: < 10%
IC50 [8]: 140 nM
Activity [16]: Not Active

O=c1ccc2ccc(O)cc2o1 [UMBELLIFERONE]
microsomal CLint [1]: 139 µL/min/mg

Cc1ccccc1N(C)C(=O)c1ccc(-c2cc(C)c(O)c(C)c2)o1
microsomal CLint [1]: 18.2 µL/min/mg
inhibition [19]: < 10%
half-life [7]: 19 min
t1/2 ([7]; s9, 1 h, 1 h): 19.1 min
IC50 [8]: 2.9 nM
half-life [10]: 38 min
t1/2 ([10]; s9, 1 h, 1 h): 38.1 min
Ratio IC50 [20]: 563
Ratio IC50 [15]: 570

Cc1cc(-c2ccc(C(=O)N(C)c3cccc(OS(N)(=O)=O)c3)o2)cc(C)c1O
IC50 [5]: 180 nM
IC50 [6]: 6400 nM
IC50 [8]: 80 nM
IC50 [11]: 92 nM
Ratio IC50 [15]: 36

O=C(c1ccc(-c2ccc(O)cc2)s1)c1c(F)ccc(O)c1F
half-life [10]: < 5 min
Ratio IC50 [20]: 24

Cc1cc(-c2ccc(C(=O)N(C)c3ccc(OS(N)(=O)=O)cc3)o2)cc(C)c1O
IC50 [5]: 430 nM
IC50 [6]: 7700 nM
IC50 [8]: 110 nM
IC50 [11]: 150 nM
Ratio IC50 [15]: 18

Cc1cc(-c2ccc(C(=O)N(C)c3ccc(OS(N)(=O)=O)c(F)c3)o2)cc(C)c1O
IC50 [5]: 500 nM
IC50 [6]: 3200 nM
IC50 [8]: 140 nM
IC50 [11]: 83 nM
Ratio IC50 [15]: 6
